The target in the assay is T1, G protein-activated inward rectifier potassium channel 1/4 (Homo sapiens, UniProt P48544+P48549).
T1 sequence (P48549 whole entry): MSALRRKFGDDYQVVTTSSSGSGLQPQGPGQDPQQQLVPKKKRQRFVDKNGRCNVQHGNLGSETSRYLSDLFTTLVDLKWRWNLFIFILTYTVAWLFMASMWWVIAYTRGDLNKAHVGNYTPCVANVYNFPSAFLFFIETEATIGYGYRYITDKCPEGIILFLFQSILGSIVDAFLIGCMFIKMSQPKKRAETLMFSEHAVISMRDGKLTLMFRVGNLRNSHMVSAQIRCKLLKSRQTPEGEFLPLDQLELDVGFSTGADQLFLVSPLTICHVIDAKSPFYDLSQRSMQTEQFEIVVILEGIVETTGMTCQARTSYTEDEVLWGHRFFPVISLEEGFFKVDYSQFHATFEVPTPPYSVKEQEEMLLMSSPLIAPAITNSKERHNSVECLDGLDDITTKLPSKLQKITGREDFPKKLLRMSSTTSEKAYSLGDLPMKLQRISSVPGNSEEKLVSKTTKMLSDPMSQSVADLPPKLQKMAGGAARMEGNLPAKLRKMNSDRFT
T1 sequence (P48544 whole entry): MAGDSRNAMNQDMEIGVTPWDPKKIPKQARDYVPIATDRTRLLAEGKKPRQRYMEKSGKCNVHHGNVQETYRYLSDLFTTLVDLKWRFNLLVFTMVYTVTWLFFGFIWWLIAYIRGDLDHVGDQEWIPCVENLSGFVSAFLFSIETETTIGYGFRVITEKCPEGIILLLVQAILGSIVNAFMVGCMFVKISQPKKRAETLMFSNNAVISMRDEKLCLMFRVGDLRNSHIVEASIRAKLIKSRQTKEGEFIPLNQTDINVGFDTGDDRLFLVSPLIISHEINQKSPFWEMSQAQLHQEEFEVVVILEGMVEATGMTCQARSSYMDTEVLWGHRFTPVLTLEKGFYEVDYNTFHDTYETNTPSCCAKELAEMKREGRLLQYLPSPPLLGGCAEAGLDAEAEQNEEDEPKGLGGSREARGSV
Nature of the assay: GIRK1/4 Activity Assay. As to the method:
The GIRK1/4 activity of a compound according to the present invention was assessed by the following in vitro method.Buffers:a. External buffer: 10 mM NaCl, 50 mM Na Gluconate, 80 mM K Gluconate, 1.8 mM CaCl2, 1 mM MgCl2, 10 mM HEPES, 10 mM Glucose, pH 7.4; osmolarity 300-310 […].b. Internal buffer: 30 mM KCl, 100 mM K Gluconate, 1 mM MgCl2, 10 mM HEPES, 1 mM EGTA, 10 mM NaCl, pH 7.2; osmolarity […].Compounds:c. Prepare seven-fold compound dilution series (10 mM to 20 uM) in 100% DMSO, in 384-well polypropylene plates.d. Propafenone (Sigma Aldrich, catalog number P4670) was used as a positive control and DMSO for neutral controle. Resuspend 1 μl of compounds in DMSO into 66.7 μl external buffer in 384-well polypropylene plate and load into Plate 1 section of Molecular Devices Quattro Quattro Setup:f. Load 384-well Population Patch Plate (Molecular Devices #9000-0902) into Quattrog. Fill Quattro F-soak trough with 20% DMSO and 50% EtOHh. Fill Quattro buffer trough with external bufferi. Attach internal buffer flask to Quattro internal buffer tubingj. Attach PBS (Phosphate Buffered Saline, minus Ca++ and Mg++, pH7.4) bottle to F-head & E-head wash on QuattroAntibiotic:k. […] Measured magnitude of inward potassium current at time point between 1200-1220 ms from start of Pulse 1 (i.e., during the voltage ramp phase).t. […]

`Cc1cc(=O)c2c(OCCC(N)=O)ncc(Cl)c2n1-c1c(Cl)cc(OCCO)cc1Cl` [US12084442, Example 18] registered an IC50 of 30 nM.

These data come from BindingDB's records for patent US12084442 (Novartis, 2024).
